The results in this text go back to patent US10179770B2, “Quinolines derivatives as novel anticancer agents” (GENOSCIENCE PHARMA, priority 2013, dated 2019).

Common to all, as to assay: Cell proliferation assay at 10 μM
One series has as its system MOLM-14. In kind it is cell-based, human. Conditions: for viability at 10 µM: Homo sapiens, read-out: Cell viability observed at 10 μM. The protocol: (§1) The human melanoma cell line A375 and colorectal carcinoma cell line HCT-116 were cultured in Dulbecco's modified Eagle's medium supplemented with 10% fetal bovine serum and 1% Penicillin-Streptomycin. The human leukemia cell line MOLM-14 was cultured in Minimum Essential Medium Alpha Medium supplemented with 10% Fetal Bovine Serum and 1% Penicillin-Streptomycin. All the cell lines were maintained at 37° C. with 5% CO2.
For MOLM-14 cell line, which grows in suspension, 30,000 cells were plated onto 96-well plates immediately before the assay.
(§2) Compounds were added at different concentrations to each well, and cell cultures were incubated for 72 h. Vehicle (DMSO or H2O) was used as a control, and all compounds were tested in a constant percentage of vehicle. Cell outgrowth was measured using for adherent cells CellTiter […] Aqueous One Solution Cell Proliferation Assay (Promega) and for cell suspension, Sulforhodamine B colorimetric assay as described in Vichai et al. (Vichai, V. and Kirtikara, K. Nat. Protoc. 2006 (1) 1112-1116). Absorbance was measured using an Infinite F200 Pro or Sunrise TECAN plate reader.
(§3) In each experiment, each point represents the average of two replicates in cell culture.
(§4) Results are presented in Table 1 below for concentrations of 10 μM of tested compounds.

The subject of the next series is A375. Type of series: cell-based, human. Conditions: for viability at 10 µM: Homo sapiens, read-out: Cell viability observed at 10 μM. Here is the method:
as §1
(§5) Briefly, adherent cells, A375 and HCT-116 cells were respectively plated at 800 or 5,000 cells per well onto 96-well plates in 90 μL of media per well and were allowed to grow overnight before the assay.
as §2, §3, §4

The next series relates to HCT-116. Type of series: cell-based. Conditions: Homo sapiens, HCT-116, 72 h. Here is the method: as §1, §5, §2, §3, §4
Setting [1] is: MOLM-14, 10 μM, 72 h, % of cell viability remaining.
Where [2] appears, read: A375, 10 μM, 72 h, % of cell viability remaining.
[3] abbreviates: read-out: Cell viability observed at 10 μM.
The mark [4] stands for this setting: HCT-116, 10 μM, 72 h, % of cell viability remaining, read-out: Cell viability observed at 10 μM.
Where [5] appears, read: A-375, A375, 10 μM, 72 h, % of cell viability remaining.

Where a name gives a salt, the structure may show the parent alone. Read-outs that look alike come from different tables or passages of the source.

What is called viability is a per cent measure of how many cells are alive, often set against a control.

Consider `CN(C)CCCNc1cc(-c2ccccc2)nc2ccccc12.Cl.Cl` [XLI-2, N^1,N^1-dimethyl-N^3-(2-phenylquinoline-4-yl)propane-1,3-diamine hydrochloride salt], for which the “Cell viability observed at 10 μM” value in the series with MOLM-14 (setting [1]) and with A375 (setting [2]) was “++++ (cell viability %<20)” each time.
On to `CN(C)CCN(C)Cc1cc(-c2ccccc2)nc2cc(Cl)ccc12` [XXXVIII-2, N^1,N^1,N^2-trimethyl-N^2-(2-phenyl-7-chloro-quinoline-4-ylmethyl)-ethane-1,2-diamine hydrochloride salt], for which the viability at 10 µM in the series with MOLM-14 (MOLM-14, 72 h) was 40 to 60%; in the series with HCT-116 (setting [3]), under 20%; with A375 (A-375, 72 h), under 20%.
As to `CCN(CC)CC1CCN(c2cc(-c3ccccc3)nc3cc(Cl)ccc23)CC1` [XXVI-4, 7-chloro-2-phenyl-4-[4-(N,N-diethylaminomethyl)-piperidin-1-yl]-quinoline hydrochloride salt], the viability at 10 µM with MOLM-14 (MOLM-14, 72 h) was over 80%; in the series with HCT-116 (setting [3]) it was over 80%; in the series with A375 (A-375, 72 h) it was over 80%.
For the molecule `CCN(CC)C1CCN(c2cc(-c3ccc(Br)cc3)nc3ccccc23)CC1` [VIII-6, 2-(4-bromo-phenyl)-4-(4-N,N-diethylamino-piperidin-1-yl)-quinoline dihydrochloride], the viability at 10 µM was 20 to 40% in the series on MOLM-14 (MOLM-14, 72 h); under 20% in the series with HCT-116 (setting [4]); under 20% with A375 (A-375, 72 h).
For the molecule `CC(c1ccccc1)N1CCC(N(C)c2cc(-c3ccccc3)nc3cc(Cl)ccc23)CC1` (stereo not shown) [XXX-2, 7-chloro-2-phenyl-4-[N-methyl-N—(N-1-phenylethyl-piperidin-4-yl)-amino]quinoline], the viability at 10 µM is 60 to 80% in the series with MOLM-14 (MOLM-14, 72 h); over 80% with HCT-116 (read-out: Cell viability observed at 10 μM, HCT-116, 10 μM, 72 h, % of cell viability remaining); over 80% with A375 (A-375, 72 h).
On to `CC(c1cc(-c2ccccc2)nc2ccccc12)N1CCC(N(CCc2ccccc2)Cc2ccccc2)CC1` (stereo not shown) [XXI-4, 2-phenyl-4-{1-{4-[benzyl(phenethyl)amino]-piperidin-1-yl}-eth-1-yl}quinoline dihydrochloride], for which the viability at 10 µM was over 80% with MOLM-14 (MOLM-14, 72 h); over 80% with HCT-116 (setting [3]); over 80% in the series with A375 (A-375, 72 h).
Regarding `CC(NC1CCN(Cc2ccccc2)CC1)c1cc(-c2ccccc2)nc2cc(Cl)ccc12` (stereo not shown) [XXXV-2, 7-chloro-2-phenyl-4-{1-[(N-benzyl-piperidin-4-yl)amino]-eth-1-yl}quinoline hydrochloride salt], the viability at 10 µM is over 80% with MOLM-14 (MOLM-14, 72 h); over 80% with HCT-116 (setting [3]); over 80% with A375 (A-375, 72 h).
As for `CCN(CC)C1CCN(c2cc(-c3ccc(Cl)cc3)nc3ccccc23)CC1` [Compound X-6, 2-(4-chloro-phenyl)-4-(4-N,N-diethylamino-piperidin-1-yl)quinoline dihydrochloride], the viability at 10 µM in the series with MOLM-14 (MOLM-14, 72 h) is 40 to 60%; in the series on HCT-116 (setting [3]) it was under 20%; in the series on A375 (A-375, 72 h), under 20%.
With `CN(C)CCN(C)c1cc(-c2ccc3ccccc3c2)nc2ccccc12` [XXXVII-2, N^1,N^1,N^2-trimethyl-N^2-(2-naphthalen-2-yl-quinoline-4-yl)-ethane-1,2-diamine hydrochloride salt], the viability at 10 µM in the series with MOLM-14 (MOLM-14, 72 h) is 40 to 60%; in the series on HCT-116 (setting [3]), over 80%; in the series on A375 (A-375, 72 h) it was 40 to 60%.
Take `CCN(CC)C1CCN(C(=O)c2cc(-c3ccccc3)nc3ccccc23)CC1` [XVIII-2, 4-[4-(N,N-diethylamino)piperidin-1-ylcarbonyl]-2-phenyl-quinoline dihydrochloride]: the viability at 10 µM in the series on MOLM-14 (setting [1]), in the series on HCT-116 (setting [4]) and in the series on A375 (setting [5]) was over 80% in each case.
`CC(C)(C)NC1CCN(c2cc(-c3ccccc3)nc3ccccc23)CC1` [IV-2, 2-phenyl-4-(4-N-tert-butylamino-piperidin-1-yl)quinoline dihydrochloride]: the viability at 10 µM in the series on MOLM-14 (MOLM-14, 72 h) was 20 to 40%; in the series on HCT-116 (setting [3]), 60 to 80%; in the series on A375 (A-375, 72 h), 40 to 60%.
The like results for `CN(C)CCCNCc1cc(-c2ccccc2)nc2cc(Cl)ccc12` [XLIV-2, N^1,N^1-dimethyl-N^3-(7-chloro-2-phenylquinoline-4-ylmethyl)-propane-1,3-diamine hydrochloride salt] were, in that order, under 20%, under 20% and under 20%.
Turning to `CC(c1ccccc1)N1CCC(N(C)c2cc(-c3ccccc3)nc3ccccc23)CC1` (stereo not shown) [XXXI-2, 2-phenyl-4-[N-methyl-N—(N-1-phenylethyl-piperidin-4-yl)-amino]quinoline hydrochloride salt], the viability at 10 µM in the series with MOLM-14 (setting [1]), in the series with HCT-116 (setting [4]) and with A375 (setting [5]) was over 80% in each case.
For the molecule `CCN(CC)C1CCN(c2cc(-c3ccccc3)nc3ccccc23)CC1.Cl.Cl` [Compound I-4, 2-phenyl-4-(4-N,N-diethylamino-piperidin-1-yl)quinoline dihydrochloride], the “Cell viability observed at 10 μM” value is “+ (cell viability 60>%<80)” in the series with MOLM-14 (setting [1]) and “− (cell viability %>80)” with A375 (setting [2]).
Regarding `c1ccc(-c2cc(N3CCC(N4CCOCC4)CC3)c3ccccc3n2)cc1` [Compound V-2, 2-phenyl-4-[(4-morpholin-4-yl)piperidin-1yl]quinoline dihydrochloride], the viability at 10 µM was 60 to 80% in the series with MOLM-14 (MOLM-14, 72 h); over 80% with HCT-116 (setting [3]); over 80% in the series with A375 (A-375, 72 h).
Consider `O=C(NC1CCN(Cc2ccccc2)CC1)c1cc(-c2ccccc2)nc2cc(Cl)ccc12` [XXXII-2, N-(1-benzylpiperidin-4-yl)-7-chloro-2-phenylquinoline-4-carboxamide hydrochloride salt], for which the viability at 10 µM was 40 to 60% in the series with MOLM-14 (MOLM-14, 72 h); over 80% in the series with HCT-116 (setting [3]); over 80% in the series with A375 (A-375, 72 h).
`CCN(CC)CC1CCN(c2cc(-c3ccccc3)nc3ccccc23)CC1` [XXVII-2, 2-phenyl-4-[4-(N,N-diethylaminomethyl)-piperidin-1-yl)quinoline hydrochloride salt]: the viability at 10 µM in the series on MOLM-14 (MOLM-14, 72 h) is 40 to 60%; with HCT-116 (setting [3]), over 80%; with A375 (A-375, 72 h) it was 20 to 40%.
The like results for `CC(NC1CCN(Cc2ccccc2)CC1)c1cc(-c2ccccc2)nc2ccccc12` (stereo not shown) [XXXIV-2, 2-phenyl-4-{1-[(N-benzyl-piperidin-4-yl)amino]-eth-1-yl}quinoline hydrochloride salt] were, in that order, 40 to 60%, 20 to 40% and under 20%.
Turning to `CN(C)CCCN(C)c1cc(-c2ccc3ccccc3c2)nc2ccccc12` [XXXIX-2, N^1,N^1,N^3-trimethyl-N^3-[2-(naphthalen-2-yl)-quinoline-4-yl]-propane-1,3-diamine hydrochloride salt], the viability at 10 µM is under 20% in the series on MOLM-14 (MOLM-14, 72 h); under 20% with HCT-116 (setting [3]); under 20% in the series on A375 (A-375, 72 h).
On to `CCN(CC)C1CCN(c2cc(-c3ccccc3)nc3ccccc23)CC1` [Compound I-3, 2-phenyl-4-(4-N,N-diethylamino-piperidin-1-yl)quinoline], for which the viability at 10 µM with MOLM-14 (setting [1]) was 60 to 80%; in the series on HCT-116 (setting [4]), over 80%; in the series on A375 (setting [5]), over 80%.
On to `CN(C)CCCNC(=O)c1cc(-c2ccccc2)nc2cc(Cl)ccc12` [XLIII-2, N-[3-(dimethylamino)propyl]-7-chloro-2-phenylquinoline-4-carboxamide hydrochloride salt], for which the viability at 10 µM is 60 to 80% with MOLM-14 (MOLM-14, 72 h); over 80% in the series with HCT-116 (setting [3]); under 20% with A375 (A-375, 72 h).
